Laboratory results: ChEMBL document CHEMBL3351620, “Structure-activity relationships and molecular modeling studies of novel arylpiperazinylalkyl 2-benzoxazolones and 2-benzothiazolones as 5-HT(7) and 5-HT(1A) receptor ligands” (Eur J Med Chem, 2014)
pKi: −log10 of the molar value.

Experiments:
[1] = biological target: T1, 5-hydroxytryptamine receptor 7 (Homo sapiens, UniProt P34969); test: Displacement of [3H]5-HT from human 5HT7 receptor transfected in […] cells ay 1 uM after 30 mins by liquid scintillation spectrometry; type: cell-based
T1 sequence (P34969 whole entry): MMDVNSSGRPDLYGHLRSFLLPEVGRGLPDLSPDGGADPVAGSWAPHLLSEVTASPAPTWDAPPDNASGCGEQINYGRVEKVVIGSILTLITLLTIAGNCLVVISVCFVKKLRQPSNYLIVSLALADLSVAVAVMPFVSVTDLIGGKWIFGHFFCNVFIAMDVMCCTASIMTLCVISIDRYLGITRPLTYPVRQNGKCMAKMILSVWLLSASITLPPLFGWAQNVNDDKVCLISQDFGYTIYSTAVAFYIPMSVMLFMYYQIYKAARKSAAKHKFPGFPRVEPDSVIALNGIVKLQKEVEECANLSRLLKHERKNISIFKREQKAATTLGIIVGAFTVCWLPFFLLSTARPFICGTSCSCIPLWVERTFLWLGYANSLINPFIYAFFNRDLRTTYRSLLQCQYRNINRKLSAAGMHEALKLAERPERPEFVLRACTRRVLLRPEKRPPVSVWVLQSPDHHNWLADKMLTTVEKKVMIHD

[2] = biological target: T1, 5-hydroxytryptamine receptor 7; test: Displacement of [3H]5-HT from human 5HT7 receptor transfected in […] cells after 30 mins by liquid scintillation spectrometry; type: cell-based
[3] = biological target: T2, 5-hydroxytryptamine receptor 1A (Homo sapiens, UniProt P08908); test: Displacement of [3H]8-OH-DPAT from human 5-HT1A receptor transfected in […] cells after 30 mins by liquid scintillation spectrometry; type: cell-based
T2 sequence (P08908 whole entry): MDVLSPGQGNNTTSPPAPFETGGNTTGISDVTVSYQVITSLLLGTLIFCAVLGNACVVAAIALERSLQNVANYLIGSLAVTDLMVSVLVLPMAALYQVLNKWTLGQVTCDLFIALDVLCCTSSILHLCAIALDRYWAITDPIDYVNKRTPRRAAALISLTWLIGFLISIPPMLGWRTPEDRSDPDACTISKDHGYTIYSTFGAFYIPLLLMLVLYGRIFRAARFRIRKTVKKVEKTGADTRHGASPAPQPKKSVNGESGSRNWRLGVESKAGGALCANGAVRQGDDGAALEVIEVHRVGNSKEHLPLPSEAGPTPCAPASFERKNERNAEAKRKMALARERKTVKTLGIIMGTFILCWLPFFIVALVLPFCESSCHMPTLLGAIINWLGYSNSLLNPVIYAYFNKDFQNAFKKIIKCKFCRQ

Homo sapiens = organism: Homo sapiens; test: Selectivity ratio of Ki for human 5HT1A receptor to Ki for human 5HT7 receptor

Row | Structure (SMILES) | inhibition [1] | pKi [2] | pKi [3] | Ratio Ki (Homo sapiens)
1 | O=C1c2cccc3cccc(c23)N1CCCCCN1CCN(c2ccccc2)CC1 | 92% |  |  | 
2 | O=c1oc2ccccc2n1CCCCN1CCN(c2ccccc2)CC1 |  | 7.58 | 7.04 | 3.43
3 | O=c1oc2ccccc2n1CCCCCCCN1CCN(c2ccccc2)CC1 |  | 7.34 | 7.53 | 0.65
4 | COc1ccccc1N1CCN(CCCCCn2c(=O)oc3ccccc32)CC1 |  | 8.23 | 7.93 | 2.01
5 | Cc1ccccc1N1CCN(CCCCn2c(=O)sc3ccccc32)CC1 |  | 9.00 | 7.98 | 10.5
6 | O=c1oc2ccccc2n1CCCCCCN1CCN(c2ccccc2)CC1 |  | 7.85 | 8.40 | 0.28
7 | O=c1sc2ccccc2n1CCCCCCN1CCN(c2ccccc2)CC1 |  | 8.53 | 9.04 | 0.3
8 | O=C1Nc2cc(F)ccc2C1CCCCN1CCN(c2cccc(Cl)c2)CC1 (stereo not drawn) |  | 6.93 | 8.17 | 
9 | COc1ccccc1N1CCN(CCCCCn2c(=O)sc3ccccc32)CC1 |  | 8.29 | 8.15 | 1.38
10 | O=c1sc2ccccc2n1CCCCN1CCN(c2ccccc2)CC1 |  | 7.44 | 6.04 | 25
11 | O=c1[nH]c2ccccc2n1CCCCCN1CCN(c2ccc(Cl)cc2)CC1 |  |  | 6.34 | 
12 | O=c1sc2ccccc2n1CCCCN1CCN(c2cccc(Cl)c2)CC1 |  | 8.76 | 8.21 | 3.56
13 | COc1ccccc1N1CCN(CCCCCCCn2c(=O)sc3ccccc32)CC1 |  | 8.07 | 9.68 | 0.02
14 | COc1ccccc1N1CCN(CCCCn2c(=O)oc3ccccc32)CC1 |  | 7.99 | 7.72 | 1.85
15 | O=c1sc2ccccc2n1CCCCN1CCN(Cc2ccccc2)CC1 |  | 7.38 | 6.16 | 16.6

Second part, the compound after the results:

Row | inhibition [1] | pKi [2] | pKi [3] | Ratio Ki (Homo sapiens) | Structure (SMILES)
16 |  | 8.11 | 7.61 | 3.16 | COc1ccccc1N1CCN(CCCCn2c(=O)sc3ccccc32)CC1
17 |  | 8.54 | 9.37 | 0.14 | COc1ccccc1N1CCN(CCCCCCn2c(=O)sc3ccccc32)CC1
18 |  | 8.12 | 9.57 | 0.03 | O=c1sc2ccccc2n1CCCCCCCN1CCN(c2ccccc2)CC1
19 |  | 8.05 | 8.22 |  | COc1ccccc1N1CCN(CCCCC(=O)NC2CCCc3ccccc32)CC1 (stereo not drawn)
20 |  | 8.55 | 7.13 | 26.4 | O=c1sc2ccccc2n1CCCCN1CCc2ccccc2C1
21 |  | 7.70 | 7.02 | 4.78 | O=c1sc2ccccc2n1CCCCCN1CCN(c2ccccc2)CC1
22 |  | 8.11 | 9.72 | 0.02 | COc1ccccc1N1CCN(CCCCCCCn2c(=O)oc3ccccc32)CC1
23 |  | 8.47 | 7.40 |  | COc1ccccc1N1CCN(CCCn2c(=O)[nH]c3ccccc32)CC1
24 |  | 7.33 | 7.08 | 1.77 | O=c1sc2ccccc2n1CCCCN1CCN(c2ccc(Cl)cc2)CC1
25 |  | 7.66 | 7.33 |  | O=C1Cc2ccccc2N1CCCCN1CCN(c2cccc3ccccc23)CC1
26 |  | 7.24 | 7.72 | 0.33 | O=c1oc2ccccc2n1CCCCCN1CCN(c2ccccc2)CC1
27 |  | 7.93 | 8.89 | 0.11 | COc1ccccc1N1CCN(CCCCCCn2c(=O)oc3ccccc32)CC1
